Measured values as given in patent US20250270170A1, “2,3-DIMETHOXY-5-METHYL-1,4-BENZOQUINONE ALKYL ALCOHOL DERIVATIVE AND USE THEREOF” (BEIJING ANJIANXI BIO-MEDICAL TECHNOLOGY CO., LTD., priority 2021, published 2025).

Tests used:
[1] = Example 10: body weight of HT-29 tumor-bearing nude mice; assay type: in vivo; settings: HT-29 model, DDP 5 mg/kg i.p. QW × 3, R01 18 mg/kg i.g. BID × 28
Procedure: On D1 of the assay, the HT-29 cells in the logarithmic growth phase were collected, counted and resuspended in serum-free McCoy, and the cell concentration was adjusted to 4×10^7 cells/mL. The cells were pipetted with a pipette to disperse them evenly, and the cells were put into a 50-mL centrifuge tube, which was placed in an ice box. A 1-mL syringe was used to draw the cell suspension, which was injected subcutaneously into the axilla of the front right limb of a nude mouse. Each animal was inoculated with 100 μL (4×10^6 cells/mouse) to establish a HT-29 transplanted tumor model in nude mice. After the inoculation, the animal status and tumor growth were regularly observed. On D12, the tumor diameter was measured using an electronic vernier caliper. The data were input into an Excel spreadsheet to calculate the tumor volume. Tumor-bearing mice in good health and with similar tumor volumes (103 to 179 mm^3) were selected and divided into groups using randomized block method. After the start of the assay, the tumor diameter was measured regularly, the tumor volume was calculated, and the animal body weight was also weighed and recorded.

[2] = Example 7: body weight of NCI-N87 tumor-bearing nude mice; assay type: in vivo; settings: DDP 4/2/1/4 mg/kg IP
[3] = Example 9: body weight of A549 tumor-bearing nude mice; assay type: in vivo
Procedure: On D1 of the assay, the A549 cells in the logarithmic growth phase were collected, counted and resuspended in PBS, and the cell concentration was adjusted to 8×10^7 cells/mL. The cells were pipetted with a pipette to disperse them evenly, and the cells were put into a 50-mL centrifuge tube, which was placed in an ice box. A 1-mL syringe was used to draw the cell suspension, which was injected subcutaneously into the axilla of the front right limb of a nude mouse. Each animal was inoculated with 100 μL (8×10^6 cells/mouse) to establish an A549 transplanted tumor model in nude mice. After the inoculation, the animal status and tumor growth were regularly observed. On D18, the tumor diameter was measured using an electronic vernier caliper. The data were input into an Excel spreadsheet to calculate the tumor volume. Tumor-bearing mice in good health and with similar tumor volumes (101 to 156 mm^3) were selected and divided into groups using randomized block method. After the start of the assay, the tumor diameter was measured regularly, the tumor volume was calculated, and the animal body weight was also weighed and recorded. [table]

[4] = system: NCI-H460 cells; assay: Colony formation assay, NCI-H460; assay type: cell-based, human; settings: 50 μM and 150 μM vs 0 μM, about 2 weeks
Procedure: (1) The cell status was observed under a microscope. Cells in the logarithmic growth phase were selected and digested to make a cell suspension. 20 μl of the cell suspension was taken with a pipette and added to the CountStar disposable cell counting plate for cell counting, and the counting results were recorded.
(2) A 6-well culture plate was used for colony formation assay. Approximately 1,000 cells were inoculated into each well, and the complete culture medium was added to make up the volume to 2.5 ml per well. The cells were shaked in a figure-8 pattern to disperse the cells evenly. The next day, the compound of formula (I) at different concentrations (0 μM, 50 μM, and 150 μM) were added to the corresponding wells according to the assay plan, and incubated in an incubator at 37° C. with 5% CO2 for about 2 weeks. The culture was terminated when visible colonies appeared.
(3) The culture plate was taken out, and the old culture medium was discarded. The cells were gently washed twice with PBS.
(4) 500 μl of 4% paraformaldehyde fixative was added to each well to fix the cells at room temperature for 15 minutes, and then the fixative was discarded.
(5) 500 μl of 0.1% crystal violet solution was added to each well, and cells were stained at room temperature for at least 15 minutes. The crystal violet was discarded, and the staining solution was slowly washed away with running water. […]

[5] = D21, DDP 5/7/7/7 mg/kg i.p. QW×4
[6] = D25, DDP 5/7/7/7 mg/kg i.p. QW×4
[7] = D28, DDP 5/7/7/7 mg/kg i.p. QW×4
[8] = D32, DDP 5/7/7/7 mg/kg i.p. QW×4
[9] = D35, DDP 5/7/7/7 mg/kg i.p. QW×4
[10] = D39, DDP 5/7/7/7 mg/kg i.p. QW×4
[11] = D42, DDP 5/7/7/7 mg/kg i.p. QW×4
[12] = D46, DDP 5/7/7/7 mg/kg i.p. QW×4

N.N.[Cl][Pt][Cl] [DDP, cisplatin]
Mean animal body weight ± SE ([1]; D 12 (grouping)): 17.6 ± 0.3 g
Mean animal body weight ± SE ([1]; D 15): 17.2 ± 0.2 g
body weight loss rate ([1]; D 15): (2.6%)
Mean animal body weight ± SE ([1]; D 19): 16.9 ± 0.3 g
body weight loss rate ([1]; D 19): (3.9%)
Mean animal body weight ± SE ([1]; D 22): 16.3 ± 0.3 g
body weight loss rate ([1]; D 22): (7.4%)
Mean animal body weight ± SE ([1]; D 26): 15.8 ± 0.4 g
body weight loss rate ([1]; D 26): (10%)
Mean animal body weight ± SE ([1]; D 29): 15.3 ± 0.3 g
body weight loss rate ([1]; D 29): (13%)
Mean animal body weight ± SE ([1]; D 33): 14.8 ± 0.4 g
body weight loss rate ([1]; D 33): (16%)
Mean animal body weight ± SE ([1]; D 36): 14.8 ± 0.4 g
body weight loss rate ([1]; D 36): (16%)
Mean animal body weight ± SE ([1]; D 40): 14.9 ± 0.4 g
body weight loss rate ([1]; D 40): (15%)
Animal body weight ([2]; D12): 18.6 ± 0.5 g
Animal body weight ([2]; D16): 17.9 ± 0.3 g
body weight loss rate ([2]; D16): 3.9%
Animal body weight ([2]; D19): 18.0 ± 0.4 g
body weight loss rate ([2]; D19): 3.3%
Animal body weight ([2]; D23): 16.9 ± 0.5 g
body weight loss rate ([2]; D23): 9.2%
Animal body weight ([2]; D26): 17.9 ± 0.5 g
body weight loss rate ([2]; D26): 3.4%
Animal body weight ([2]; D30): 17.5 ± 0.3 g
body weight loss rate ([2]; D30): 6.0%
Animal body weight ([2]; D33): 18.6 ± 0.4 g
body weight loss rate ([2]; D33): 0.090%
Animal body weight ([2]; D37): 18.9 ± 0.4 g
body weight loss rate ([2]; D37): −2.0%
Animal body weight ([2]; D40): 19.2 ± 0.4 g
body weight loss rate ([2]; D40): −3.1%
Animal body weight ([2]; D44): 18.3 ± 0.3 g
body weight loss rate ([2]; D44): 1.4%
Mean animal body weight ([3]; D18, DDP 4 mg/kg i.p. QW×4): 18.4 ± 0.4 g
Mean animal body weight ([3]; D18, DDP 5/7/7/7 mg/kg i.p. QW×4): 18.5 ± 0.3 g
Mean animal body weight ([3]; D21, DDP 4 mg/kg i.p. QW×4): 18.3 ± 0.5 g
body weight loss rate ([3]; D21, DDP 4 mg/kg i.p. QW×4): (0.81%)
Mean animal body weight [3, 5]: 18.4 ± 0.3 g
body weight loss rate [3, 5]: (0.61%)
Mean animal body weight ([3]; D25, DDP 4 mg/kg i.p. QW×4): 18.1 ± 0.3 g
body weight loss rate ([3]; D25, DDP 4 mg/kg i.p. QW×4): (1.7%)
Mean animal body weight [3, 6]: 18.5 ± 0.3 g
body weight loss rate [3, 6]: (0.00%)
Mean animal body weight ([3]; D28, DDP 4 mg/kg i.p. QW×4): 18.5 ± 0.3 g
body weight loss rate ([3]; D28, DDP 4 mg/kg i.p. QW×4): (−0.14%)
Mean animal body weight [3, 7]: 18.9 ± 0.3 g
body weight loss rate [3, 7]: (−2.4%)
Mean animal body weight ([3]; D32, DDP 4 mg/kg i.p. QW×4): 18.7 ± 0.3 g
body weight loss rate ([3]; D32, DDP 4 mg/kg i.p. QW×4): (−1.4%)
Mean animal body weight [3, 8]: 18.3 ± 0.4 g
body weight loss rate [3, 8]: (1.3%)
Mean animal body weight ([3]; D35, DDP 4 mg/kg i.p. QW×4): 19.3 ± 0.3 g
body weight loss rate ([3]; D35, DDP 4 mg/kg i.p. QW×4): (−4.9%)
Mean animal body weight [3, 9]: 19.2 ± 0.4 g
body weight loss rate [3, 9]: (−4.0%)
Mean animal body weight ([3]; D39, DDP 4 mg/kg i.p. QW×4): 19.3 ± 0.3 g
body weight loss rate ([3]; D39, DDP 4 mg/kg i.p. QW×4): (−4.6%)
Mean animal body weight [3, 10]: 18.0 ± 0.3 g
body weight loss rate [3, 10]: (2.5%)
Mean animal body weight ([3]; D42, DDP 4 mg/kg i.p. QW×4): 19.8 ± 0.5 g
body weight loss rate ([3]; D42, DDP 4 mg/kg i.p. QW×4): (−7.7%)
Mean animal body weight [3, 11]: 18.8 ± 0.4 g
body weight loss rate [3, 11]: (−1.5%)
Mean animal body weight ([3]; D46, DDP 4 mg/kg i.p. QW×4): 19.5 ± 0.5 g
body weight loss rate ([3]; D46, DDP 4 mg/kg i.p. QW×4): (−5.6%)
Mean animal body weight [3, 12]: 17.1 ± 0.5 g
body weight loss rate [3, 12]: (7.4%)

COC1=C(OC)C(=O)C(CCCCCCCCCCOC(=O)Cc2c(C)n(C(=O)c3ccc(Cl)cc3)c3ccc(OC)cc23)=C(C)C1=O [compound of formula (I)]
colony-forming ability [4]: decreased significantly
